In patent US10570184B2, “GLP-1/glucagon receptor co-agonists for medical use” (Novo Nordisk A/S, priority 2014, dated 2020):
Starred links: 1 amine or outer side, 2 acyl side, 3 side chain; linkers in the order of their positions; H or OH if unused. Non-standard residues stand in square brackets, D forms with d. Residues, ends and D or L forms follow the SMILES beside them. Groups on a side chain read outwards from the residue. *: point of attachment. C18 diacid = O=C(O)CCCCCCCCCCCCCCCCC(=O)*; γGlu = O=C(O)[C@H](CCC(=O)[*:2])N[*:1]; Ac4c = NC1(C(=O)O)CCC1; AEEA = NCCOCCOCC(=O)O; Aib = CC(C)(N)C(=O)O

Each compound was assayed against T1, human GLP-1 receptor (Homo sapiens, UniProt P43220) (assay: Assay (II)(a) GLP-1 receptor binding, 125I-GLP-1 displacement SPA on BHK membranes). Conditions: without presence of serum albumin; read-out: GLP-1R IC50 (nM) [Assay (II)(a)].
T1 construct: expressed in transfected cells; host or cells: membranes of BHK cells (parent BHKTS13), clone FCW467-12A
How it was run: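 Membranes from BHK cells (clone FCW467-12A) stably expressing human GLP-1R were incubated with serially diluted compounds (8×10EE-13 to 8×10EE-7 M before addition) and [125I]-GLP-1-(7-36)NH2 with WGA SPA beads, 2 h at 30° C, pH 7.4. IC50 taken from displacement by non-linear regression. Run at ≤0.001% or 2.0% final serum albumin.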

T1 sequence (P43220 24-463): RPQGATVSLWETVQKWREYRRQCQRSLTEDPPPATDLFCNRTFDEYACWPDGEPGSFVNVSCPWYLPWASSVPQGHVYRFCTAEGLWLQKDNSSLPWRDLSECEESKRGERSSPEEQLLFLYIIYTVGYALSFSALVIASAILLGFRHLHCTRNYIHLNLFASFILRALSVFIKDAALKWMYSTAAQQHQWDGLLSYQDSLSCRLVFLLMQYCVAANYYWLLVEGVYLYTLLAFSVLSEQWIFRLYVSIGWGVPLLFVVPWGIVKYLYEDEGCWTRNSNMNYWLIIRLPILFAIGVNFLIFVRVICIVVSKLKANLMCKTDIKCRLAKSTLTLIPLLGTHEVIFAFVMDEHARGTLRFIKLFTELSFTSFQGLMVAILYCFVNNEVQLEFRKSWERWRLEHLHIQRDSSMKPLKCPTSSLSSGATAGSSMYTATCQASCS

| Compound | IC50 [nM] |
| --- | --- |
| CC[C@H](C)[C@H](NC(=O)[C@H](CC(C)C)NC(=O)[C@H](Cc1c[nH]c2ccccc12)NC(=O)[C@H](C)NC(=O)[C@@H](NC(=O)[C@H](Cc1ccccc1)NC(=O)[C@H](CC(=O)O)NC(=O)[C@H](CCCNC(=N)N)NC(=O)[C@H](C)NC(=O)[C@H](CCCNC(=N)N)NC(=O)[C@H](CCCNC(=N)N)NC(=O)[C@H](CC(C)C)NC(=O)[C@H](CC(=O)O)NC(=O)[C@H](CC(C)C)NC(=O)[C@H](Cc1ccc(O)cc1)NC(=O)[C@H](CCCCN)NC(=O)[C@H](CO)NC(=O)[C@H](CC(C)C)NC(=O)[C@H](CC(=O)O)NC(=O)[C@H](CO)NC(=O)[C@@H](NC(=O)[C@H](Cc1ccccc1)NC(=O)[C@@H](NC(=O)CNC(=O)[C@H](CCC(N)=O)NC(=O)C(C)(C)NC(=O)[C@@H](N)Cc1c[nH]cn1)[C@@H](C)O)[C@@H](C)O)C(C)C)C(=O)N[C@@H](CC(N)=O)C(=O)N[C@@H](CCCCNC(=O)CC[C@H](NC(=O)CC[C@H](NC(=O)COCCOCCNC(=O)COCCOCCNC(=O)CC[C@H](NC(=O)CCCCCCCCCCCCCCCCC(=O)O)C(=O)O)C(=O)O)C(=O)O)C(N)=O [Chem. 24, N^ε29-[(4S)-4-carboxy-4-[[(4S)-4-carboxy-4-[[2-[2-[2-[[2-[2-[2-[[(4S)-4-carboxy-4-(17-carboxyheptadecanoylamino)butanoyl]amino]ethoxy]ethoxy]acetyl]amino]ethoxy]ethoxy]acetyl]amino]butanoyl]amino]butanoyl]-[Aib2,Leu10,Leu16,Arg20,Ala24,Ile27,Lys29]-Glucagon amide] (H-H[Aib]QGTFTSDLSKYLDLRRARDFVAWLINK([γGlu-γGlu-AEEA-AEEA-γGlu-C18 diacid])-NH2; N-terminus assumed) | 0.4 |
| CC[C@H](C)[C@H](NC(=O)[C@H](CC(C)C)NC(=O)[C@H](Cc1c[nH]c2ccccc12)NC(=O)[C@H](CCC(N)=O)NC(=O)[C@@H](NC(=O)[C@H](Cc1ccccc1)NC(=O)[C@H](CCC(=O)O)NC(=O)[C@H](CCCNC(=N)N)NC(=O)[C@H](C)NC(=O)[C@H](CCCNC(=N)N)NC(=O)[C@H](CCCNC(=N)N)NC(=O)[C@H](CO)NC(=O)[C@H](CCC(=O)O)NC(=O)[C@H](CC(C)C)NC(=O)[C@H](Cc1ccc(O)cc1)NC(=O)[C@H](CCCCN)NC(=O)[C@H](CO)NC(=O)[C@H](CC(C)C)NC(=O)[C@H](CC(=O)O)NC(=O)[C@H](CO)NC(=O)[C@@H](NC(=O)[C@H](Cc1ccccc1)NC(=O)[C@@H](NC(=O)CNC(=O)[C@H](CCC(N)=O)NC(=O)C(C)(C)NC(=O)[C@@H](N)Cc1c[nH]cn1)[C@@H](C)O)[C@@H](C)O)C(C)C)C(=O)N[C@@H](CCCCNC(=O)CC[C@H](NC(=O)CC[C@H](NC(=O)COCCOCCNC(=O)COCCOCCNC(=O)CC[C@H](NC(=O)CC[C@H](NC(=O)CCCCCCCCCCCCCCCCC(=O)O)C(=O)O)C(=O)O)C(=O)O)C(=O)O)C(=O)N[C@H](C(N)=O)[C@@H](C)O [Chem. 25, N^ε28-[(4S)-4-carboxy-4-[[(4S)-4-carboxy-4-[[2-[2-[2-[[2-[2-[2-[[(4S)-4-carboxy-4-[[(4S)-4-carboxy-4-(17-carboxyheptadecanoylamino)butanoyl]amino]butanoyl]amino]ethoxy]ethoxy]acetyl]amino]ethoxy]ethoxy]acetyl]amino]butanoyl]amino]butanoyl]-[Aib2,Leu10,Glu15,Arg20,Glu21,Ile27,Lys28]-Glucagon amide] (H-H[Aib]QGTFTSDLSKYLESRRAREFVQWLIK([γGlu-γGlu-AEEA-AEEA-γGlu-γGlu-C18 diacid])T-NH2; N-terminus assumed) | 0.1 |
| CC[C@H](C)[C@H](NC(=O)[C@H](CC(=O)O)NC(=O)[C@H](CO)NC(=O)[C@@H](NC(=O)[C@H](Cc1ccccc1)NC(=O)[C@@H](NC(=O)CNC(=O)[C@H](CCC(N)=O)NC(=O)C1(NC(=O)[C@@H](N)Cc2c[nH]cn2)CCC1)[C@@H](C)O)[C@@H](C)O)C(=O)N[C@@H](CO)C(=O)N[C@@H](CCCCN)C(=O)N[C@@H](Cc1ccc(O)cc1)C(=O)N[C@@H](CC(C)C)C(=O)N[C@@H](CCC(=O)O)C(=O)N[C@@H](CO)C(=O)N[C@@H](CCCNC(=N)N)C(=O)N[C@@H](CCCNC(=N)N)C(=O)N[C@@H](C)C(=O)N[C@@H](CCCNC(=N)N)C(=O)N[C@@H](CCC(=O)O)C(=O)N[C@@H](Cc1ccccc1)C(=O)N[C@H](C(=O)N[C@@H](CCC(N)=O)C(=O)N[C@@H](Cc1c[nH]c2ccccc12)C(=O)N[C@@H](CC(C)C)C(=O)N[C@H](C(=O)N[C@@H](CCCCNC(=O)CC[C@H](NC(=O)CC[C@H](NC(=O)COCCOCCNC(=O)COCCOCCNC(=O)CC[C@H](NC(=O)CC[C@H](NC(=O)CCCCCCCCCCCCCCCCC(=O)O)C(=O)O)C(=O)O)C(=O)O)C(=O)O)C(=O)N[C@H](C(N)=O)[C@@H](C)O)[C@@H](C)CC)C(C)C [Chem. 26, N^ε28-[(4S)-4-carboxy-4-[[(4S)-4-carboxy-4-[[2-[2-[2-[[2-[2-[2-[[(4S)-4-carboxy-4-[[(4S)-4-carboxy-4-(17-carboxyheptadecanoylamino)butanoyl]amino]butanoyl]amino]ethoxy]ethoxy]acetyl]amino]ethoxy]ethoxy]acetyl]amino]butanoyl]amino]butanoyl]-[Acb2,Ile10,Glu15,Arg20,Glu21,Ile27,Lys28]-Glucagon amide] (H-H[Ac4c]QGTFTSDISKYLESRRAREFVQWLIK([γGlu-γGlu-AEEA-AEEA-γGlu-γGlu-C18 diacid])T-NH2; N-terminus assumed) | 0.4 |
| CC[C@H](C)[C@H](NC(=O)[C@H](CC(C)C)NC(=O)[C@H](Cc1c[nH]c2ccccc12)NC(=O)[C@H](CCC(N)=O)NC(=O)[C@@H](NC(=O)[C@H](Cc1ccccc1)NC(=O)[C@H](CC(=O)O)NC(=O)[C@H](CCCNC(=N)N)NC(=O)[C@H](C)NC(=O)[C@H](CCCNC(=N)N)NC(=O)[C@H](CCCNC(=N)N)NC(=O)[C@H](C)NC(=O)[C@H](CC(=O)O)NC(=O)[C@H](CC(C)C)NC(=O)[C@H](Cc1ccc(O)cc1)NC(=O)[C@H](CCCCN)NC(=O)[C@H](CO)NC(=O)[C@H](CC(C)C)NC(=O)[C@H](CC(=O)O)NC(=O)[C@H](CO)NC(=O)[C@@H](NC(=O)[C@H](Cc1ccccc1)NC(=O)[C@@H](NC(=O)CNC(=O)[C@H](CCC(N)=O)NC(=O)C(C)(C)NC(=O)[C@@H](N)Cc1c[nH]cn1)[C@@H](C)O)[C@@H](C)O)C(C)C)C(=O)N[C@@H](CO)C(=O)N[C@@H](CCCCNC(=O)CC[C@H](NC(=O)CC[C@H](NC(=O)COCCOCCNC(=O)COCCOCCNC(=O)CC[C@H](NC(=O)CCCCCCCCCCCCCCCCC(=O)O)C(=O)O)C(=O)O)C(=O)O)C(N)=O [Chem. 27, N^ε29-[(4S)-4-carboxy-4-[[(4S)-4-carboxy-4-[[2-[2-[2-[[2-[2-[2-[[(4S)-4-carboxy-4-(17-carboxyheptadecanoylamino)butanoyl]amino]ethoxy]ethoxy]acetyl]amino]ethoxy]ethoxy]acetyl]amino]butanoyl]amino]butanoyl]-[Aib2,Leu10,Ala16,Arg20,Ile27,Ser28,Lys29]-Glucagon amide] (H-H[Aib]QGTFTSDLSKYLDARRARDFVQWLISK([γGlu-γGlu-AEEA-AEEA-γGlu-C18 diacid])-NH2; N-terminus assumed) | 0.2 |
